Assay results: PMC12673148, “Structural basis of protease-activated receptor 2 activation and biased agonism” (Cell Discovery, 2025)
Where two headings read alike, the source gives them in different places.

Tests used:
PAR2 [1] = conditions: cited from earlier work; for PAR2 activation: synthetic peptides mimicking the TL
Description: We used the N-terminal deletion construct of PAR2 (Δ1–48) as the backbone of the receptor to support downstream signaling, as it has lower intrinsic activity than the FL receptor does (Supplementary Fig. S1a).

PAR2 [2] = conditions: cited from earlier work
PAR2 [3] = conditions: cited from earlier work; remark: listed apart in the source
PAR2 (Gq signaling) [4] = experiment: BRET0 assay, tricistronic Gq sensor, ligand-induced; format: cell-based, human
Description: (§1) To measure the self-activation of WT and mutant PAR2 in response to G protein activity, a tricistronic activity sensor assay was performed as previously described. The G protein sensor plasmids were obtained from Addgene (https://addgene.org/Gunnar_Schulte/). To measure constitutive activity, AD293 cells in 6-well plates were cotransfected with 500 ng of WT or mutant PAR2 and 500 ng of the G protein sensor construct (pcDNA-Gα-Nluc/Gβ3/cpVenus-Gγ9 fusion combination) with Lipofectamine 2000 (Invitrogen). After being incubated for 24 h at 37 °C in a 5% CO2 atmosphere, the transfected cells were seeded into white 96-well plates and grown for another 24 h. The cells were subsequently washed with HBSS and incubated with a 1:1000 dilution of furimazine stock solution. After incubation for 3 min at 37 °C, the BRET ratio was measured twice consecutively to assess constitutive receptor activity using an EnVision multimode plate reader (PerkinElmer). Nluc emission intensity was selected using a 450/40-nm monochromator, and cpVenus^173 emission was selected using a 535/30-nm monochromator with an integration time of 0.3 s in both channels. The ratio of cpVenus/Nluc intensity was calculated for each well and normalized to that of the vehicle control.
(§2) For ligand-induced BRET0 measurements, transfected cells were plated in 96-well plates for 24 h, after which the cells were washed with HBSS and incubated with a 1:1000 dilution of furimazine stock solution. After being incubated for 3 min at 37 °C, the cells were treated with the addition of ligand solutions or vehicle control. Plates were then subjected to BRET measurements with an EnVision plate reader (PerkinElmer) at 450/40-nm (Nluc-furimazine) and 535/30-nm to detect ligand-induced changes in the BRET signal. Like in the BRET2 assay, the BRET signal was calculated by the ratio of the intensity at 535 nm (cpVenus) to that at 450 nm (Nluc), and the Δnet BRET ratio was calculated by subtracting the intensity of the vehicle control from that of each experimental well. […]

PAR2 (Gs signaling) [5] = conditions: full-length (FL) PAR2; cited from earlier work
Description: To mimic trypsin cleavage of PAR2 between R36 and S37, we removed residues 2–36 of PAR2 and allowed native methionine aminopeptidase (MAP) to remove the N-terminal methionine residue via a process termed N-terminal methionine processing that occurs naturally across prokaryotes and eukaryotes. We employed a bioluminescence resonance energy transfer (BRET) assay consisting of G protein-based tricistronic activity sensors (BRET0)[17] to quantitatively assess the constitutive activity of GPCR. This approach allowed us to measure the intrinsic activity of the PAR2 constructs. Compared with the ...

PAR2 (Gi signaling) = experiment: BRET0 assay, Gi sensor, ligand-induced; format: cell-based, human; conditions: AD293 cells, full-length (FL) PAR2, Fig. S1b
Description: as §1, with “The cells were subsequently washed with HBSS and incubated with a 1:1000 dilution of furimazine stock solution.” left out, “Nluc emission intensity was selected using a 450/40-nm monochromator, and cpVenus^173 emission was selected using a 535/30-nm monochromator with an integration time of 0.3 s in both channels.” left out
(§3) For ligand-induced BRET0 measurements, transfected cells were plated in 96-well plates for 24 h, after which the cells were washed with HBSS and incubated with a 1:1000 dilution of furimazine stock solution. […] Plates were then subjected to BRET measurements with an EnVision plate reader (PerkinElmer) at 450/40-nm (Nluc-furimazine) and 535/30-nm to detect ligand-induced changes in the BRET signal. […]

PAR2 (G13 signaling) [6] = experiment: BRET0 assay, tricistronic G13 sensor, ligand-induced; format: cell-based, human
Description: as §1, §2

PAR2 (Gs signaling) [7] = experiment: BRET0 assay, Gs sensor, ligand-induced; format: cell-based, human; conditions: AD293 cells, full-length (FL) PAR2, Fig. S1b
Description: as §1, with “The cells were subsequently washed with HBSS and incubated with a 1:1000 dilution of furimazine stock solution.” left out, “Nluc emission intensity was selected using a 450/40-nm monochromator, and cpVenus^173 emission was selected using a 535/30-nm monochromator with an integration time of 0.3 s in both channels.” left out
as §3

PAR2 (G13 signaling) [8] = experiment: NanoBiT G protein dissociation assay, G13; format: cell-based, human; conditions: mean ± SD
Description: (§4) Ligand-induced G protein activation was measured by a NanoBiT G protein dissociation assay, as described previously[11],[41]. Briefly, AD293 cells cultured in 6-well plates were transfected with plasmids encoding a large fragment (LgBiT)-containing Gαq or Gα13 subunit (100 ng), a small fragment (SmBiT)-fused Gβ1 subunit (500 ng), and the untagged Gγ2 subunit with a C68S mutation (500 ng) in combination with the WT PAR2 construct (200 ng). After being incubated for 1 day, the transfected cells were collected, pelleted by centrifugation, and suspended in HBSS containing 0.01% bovine serum albumin (Solarbio) and 5 mM HEPES (pH 7.4; assay buffer). The cell suspension was dispensed in white 96-well plates at a volume of 80 μL per well and mixed with 20 μL of 50 μM coelenterazine native (BIOSTNTH). After incubation for 2 h at RT, the baseline luminescence was measured, after which 20 μL of test compound (6×) was added, and subsequent luminescence measurements were performed to detect ligand-induced changes. Luminescence intensity measured from 3 min to 5 min after compound addition was normalized to the initial intensity, and the net luminescence was calculated by subtracting the luminescence ratio of the vehicle control from the normalized luminescence per well. The G protein dissociation signals were fitted to a four-parameter sigmoidal concentration–response curve (GraphPad Prism 8).

PAR2 (Gq signaling) [9] = experiment: BRET2 Gq dissociation assay; format: cell-based, human
Description: (§5) In accordance with previous methods, AD293 cells were plated in 6-well plates at 700,000–800,000 cells per well. After 1 day of growth at 37 °C with 5% CO2, the cells in each well were transfected with 100 ng of pcDNA3-PAR2 (Δ1–48) WT or mutants, 100 ng of Gα-RLuc8, 100 ng of Gβ, and 100 ng of Gγ-green fluorescent protein (Gγ-GFP) plasmids with Lipofectamine 2000 (Thermo Fisher Scientific). After being incubated for 1 day, the cells were collected, pelleted by centrifugation, and suspended in DMEM supplemented with 5% (v/v) FBS. The cell suspensions were dispensed in white 96-well plates at a density of 25,000–50,000 cells per well. One day after being plated, the growth medium was carefully aspirated and replaced immediately with 60 μL of 1× Hank’s balanced salt solution (HBSS) containing 20 mM HEPES (pH 7.4; assay buffer), followed by the addition of 10 μL of freshly prepared 50 μM coelenterazine 400a (Yeasen). After a 5-min equilibration period, the cells were treated with 30 μL of drug for an additional 5 min. The plates were then measured in an EnVision plate reader (PerkinElmer) with 395 nm (RLuc8-coelenterazine 400a) and 510 nm (GFP2) emission filters with integration times of 1 s. The BRET signal was calculated by the ratio of the luminescence intensity at 510 nm (GFP) to that at 395 nm (RLuc), and the Δnet BRET ratio was calculated by subtracting the luminescence intensity of the vehicle control from that of each experimental well (510 nm/395 nm). The data were subsequently plotted as a four-parameter sigmoidal concentration–response curve in GraphPad Prism 8.

PAR2 (G13 signaling) [10] = experiment: BRET2 G13 dissociation assay; format: cell-based, human
Description: as §5

PAR2 (Gq signaling) [11] = experiment: NanoBiT G protein dissociation assay, Gq; format: cell-based, human; conditions: mean ± SD
Description: as §4

[12] = AD293 cells, full-length (FL) PAR2, Fig. S1b
[13] = PAR2 D62A, AD293 cells, n = 3, Fig. S5a
[14] = PAR2 (Δ1–48) D62A, AD293 cells, mean ± SD, n = 3, Fig. 5b
[15] = BRET0, AD293 cells, mean ± SD, n = 3, Fig. S5b
[16] = PAR2 (Δ1–48) WT, AD293 cells, mean ± SD, n = 3, Fig. 5g
[17] = summary statement, assay not named (BRET2, BRET0, NanoBiT used)

2-furoyl-LIGRL-NH2
PAR2 activation (PAR2 [1]): activating the receptor independently of protease cleavage

2f-LAAAAI-NH2 [DF253]
PAR2-mediated Ca2+ release (PAR2 [2]): trigger PAR2-mediated Ca^2+ release | ERK1/2 phosphorylation (PAR2 [3]): without inducing ERK1/2 phosphorylation

C/C(=N\NC(=O)[C@H]1C(=O)NC[C@@H]1c1ccccc1)c1cccc(Br)c1 [AC264613]
PAR2 agonism (PAR2 [1]; reference not given): potent PAR2-selective agonist

CC[C@H](C)[C@H](NC(=O)[C@H](CC1CCCCC1)NC(=O)c1ccno1)C(=O)N1CCC2(C=Cc3ccccc32)CC1 [GB88]
PAR2 agonism (PAR2 [1]): partial PAR2 agonist

Isox-Cha-Chg-Chg-A-R-NH2 [AY254]
ERK1/2 phosphorylation (PAR2 [3]): ERK-biased agonist

SLAGRL-NH2
efficacy (PAR2 [1]): significantly lower efficacy

SLIGKV [SLIGKV (TL), tethered ligand peptide of human PAR2]
Gq signaling activation (PAR2 (Gq signaling) [4]; [12]): activated | Gs signaling induction (PAR2 (Gs signaling) [5]): incapable of inducing Gs signaling | Gi signaling activation (PAR2 (Gi signaling)): activated | G13 signaling activation (PAR2 (G13 signaling) [6]; [12]): activated | Gs signaling activation (PAR2 (Gs signaling) [7]): had no effect on Gs signaling

SLIGKV-NH2 [human tethered-ligand synthetic peptide]
PAR2 activation (PAR2 [1]): activating the receptor independently of protease cleavage

SLIGRL-NH2 [mouse tethered-ligand peptide used as synthetic WT peptide]
Gq versus G13 bias, D62A mutant (PAR2 (Gq signaling) [4]; PAR2 D62A, AD293 cells, BRET0, mean ± SD, n = 3, Fig. S5a): clearly biased toward Gq signaling | G13 activity, D62A mutant (PAR2 (G13 signaling) [6]; PAR2 D62A, AD293 cells, mean ± SD, n = 3, Fig. S5a): minimal G13 activity | G13 activity, D62A mutant (PAR2 (G13 signaling) [8]; [13]): minimal G13 activity | Gq activity, D62A mutant (PAR2 (Gq signaling) [9]; [14]): only had a minor effect on Gq activity | G13 activity, D62A mutant (PAR2 (G13 signaling) [10]; [14]): almost completely abolished G13 activity | G13 receptor activity, D228A mutant (PAR2 (G13 signaling) [10]; PAR2 (Δ1–48) D228A, AD293 cells, mean ± SD, n = 3, Fig. 2c): strongly decreased receptor activity | G13 receptor activity, H227A mutant (PAR2 (G13 signaling) [10]; PAR2 (Δ1–48) H227A, AD293 cells, mean ± SD, n = 3, Fig. S3h): decreased receptor activity | G13 receptor activity, H310A mutant (PAR2 (G13 signaling) [10]; PAR2 (Δ1–48) H310A, AD293 cells, mean ± SD, n = 3, Fig. 2c): strongly decreased receptor activity | G13 receptor activity, L230A mutant (PAR2 (G13 signaling) [10]; PAR2 (Δ1–48) L230A, AD293 cells, mean ± SD, n = 3, Fig. 2c): strongly decreased receptor activity | G13 receptor activity, P231A mutant (PAR2 (G13 signaling) [10]; PAR2 (Δ1–48) P231A, AD293 cells, mean ± SD, n = 3, Fig. 2c): strongly decreased receptor activity | G13 receptor activity, V229A mutant (PAR2 (G13 signaling) [10]; PAR2 (Δ1–48) V229A, AD293 cells, mean ± SD, n = 3, Fig. S3h): decreased receptor activity | G13 receptor activity, Y311A mutant (PAR2 (G13 signaling) [10]; PAR2 (Δ1–48) Y311A, AD293 cells, mean ± SD, n = 3, Fig. 2c): strongly decreased receptor activity | G13 receptor activity, Y323A mutant (PAR2 (G13 signaling) [10]; PAR2 (Δ1–48) Y323A, AD293 cells, mean ± SD, n = 3, Fig. 2c): strongly decreased receptor activity | Gq versus G13 bias, D62A mutant (PAR2 (Gq signaling) [11]; [13]): clearly biased toward Gq signaling | inducing activity versus human ligand SLIGKV-NH2 (PAR2 [1]): much higher inducing activity than the human ligand | PAR2 activation (PAR2 [1]): activating the receptor independently of protease cleavage

SLVGRL-NH2 [synthetic peptide with valine at third TL residue; Gq-biased ligand]
Gq versus G13 bias (PAR2 (Gq signaling) [4]; [15]): strong bias toward Gq signaling | G13 activity (PAR2 (G13 signaling) [6]; [15]): minimal G13 activity | G13 activity (PAR2 (G13 signaling) [8]; NanoBiT, WT PAR2, AD293 cells, n = 3, Fig. S5b): minimal G13 activity | Gq activity relative to WT peptide (PAR2 (Gq signaling) [9]; [16]): maintained most of the Gq activity of the WT peptide | Gq signaling (discussion summary) (PAR2 (Gq signaling) [9]; [17]): predominantly activates Gq signaling | G13 activity relative to WT peptide (PAR2 (G13 signaling) [10]; [16]): lost most of the G13 activity | G13 signaling (discussion summary) (PAR2 (G13 signaling) [10]; [17]): minimal effect on G13 signaling | Gq versus G13 bias (PAR2 (Gq signaling) [11]; WT PAR2, AD293 cells, n = 3, Fig. S5b): strong bias toward Gq signaling

B1: NE: neutrophil elastase, protease cleaving PAR2 between S67↓V68 (protein, UniProt P08246 30-267, looked up)
Neutrophil elastase: IVGGRRARPHAWPFMVSLQLRGGHFCGATLIAPNFVMSAAHCVANVNVRAVRVVLGAHNLSRREPTRQVFAVQRIFENGYDPVNLLNDIVILQLNGSATINANVQVAQLPAQGRRLGNGVQCLAMGWGLLGRNRGIASVLQELNVTVVTSLCRRSNVCTLVRGRQAGVCFGDSGSPLVCNGLIHGIASFVRGGCASGLYPDAFAPVAQFVNWIDSIIQRSEDNPCPHPRDPDPASRTH
Ca2+ release on PAR2 cleavage (PAR2 [2]; cleavage at E56↓T57 (CS) or S67↓V68 (NE)): not Ca^2+ release | ERK1/2 activation on PAR2 cleavage (PAR2 [3]; cleavage at S67↓V68): activates ERK1/2
